Assay results as given in US6737383B1, “Herbicidal oxadiazolidines” (priority 1999, dated 2004).

Columns and labels:
[1] = system: wild oat; experiment: Test B pre/postemergence wild oat; format: in vivo, Avena fatua
How it was run: (§1)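 Test chemicals in a non-phytotoxic solvent mixture with surfactant were sprayed preemergence onto planted seeds and postemergence onto plants 2 to 18 cm tall (1- to 4-leaf stage). After twelve to sixteen days in a greenhouse, injury was visually rated against untreated controls from 0 (no effect) to 10 (complete control).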

[2] = system: bamyardgrass; experiment: Test B flood test barnyardgrass; format: in vivo, Echinochloa crus-galli
How it was run: (§2)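 Read-out is a visual response score from 0 (no effect) to 10 (complete control), assigned by comparison with untreated controls. Treatment was applied at the 2-leaf stage, and plants stayed in the greenhouse for twelve to sixteen days before scoring.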

[3] = system: velvetleaf; experiment: Test B pre/postemergence velvetleaf; format: in vivo, Abutilon theophrasti
How it was run: as §1

[4] = system: duck salad; experiment: Test B flood test duck salad; format: in vivo, Heteranthera limosa
How it was run: as §2

[5] = system: corn; experiment: Test B pre/postemergence corn; format: in vivo, Zea mays
How it was run: as §1

[6] = system: bedstraw; experiment: Test B pre/postemergence bedstraw; format: in vivo, Galium aparine
How it was run: as §1

[7] = system: blackgrass; experiment: Test B pre/postemergence blackgrass; format: in vivo, Alopecurus myosuroides
How it was run: as §1

[8] = system: wheat; experiment: Test B pre/postemergence wheat; format: in vivo, Triticum aestivum
How it was run: as §1

[9] = system: cocklebur; experiment: Test B pre/postemergence cocklebur; format: in vivo, Xanthium strumarium
How it was run: as §1

[10] = system: purple nutsedge; experiment: Test B pre/postemergence purple nutsedge; format: in vivo, Cyperus rotundus
How it was run: as §1

[11] = system: rice; experiment: Test B flood test rice; format: in vivo, Oryza sativa
How it was run: as §2

[12] = system: sugar beet; experiment: Test B pre/postemergence sugar beet; format: in vivo, Beta vulgaris
How it was run: as §1

[13] = system: smallflower flatsedge; experiment: Test B flood test smallflower flatsedge; format: in vivo, Cyperus difformis
How it was run: as §2

[14] = system: rape; experiment: Test B pre/postemergence rape; format: in vivo, Brassica napus
How it was run: as §1

[15] = system: crabgrass; experiment: Test B pre/postemergence crabgrass; format: in vivo, Digitaria sanguinalis
How it was run: as §1

[16] = system: soybean; experiment: Test B pre/postemergence soybean; format: in vivo, Glycine max
How it was run: as §1

[17] = system: surinam grass; experiment: Test B pre/postemergence surinam grass; format: in vivo, Brachiaria decumbens
How it was run: as §1

[18] = Postemergence, Rate 62 g/ha, scale 0 to 10, 0 is no effect, 10 is complete control
[19] = Postemergence, Rate 250 g/ha, scale 0 to 10, 0 no effect, 10 complete control
[20] = Preemergence, Rate 31 g/ha, visual rating, scale 0 to 10 (0 no effect, 10 complete control)
[21] = Preemergence, Rate 125 g/ha, scale 0 to 10 (0 no effect, 10 complete control)
[22] = Preemergence, Rate 250 g/ha, scale of 0 to 10 where 0 is no effect and 10 is complete control
[23] = Rate 125 g/ha, Postemergence, scale 0 to 10, 0 no effect, 10 complete control
[24] = Rate 125 g/ha, Postemergence section (flood test species), scale 0 to 10, 0 no effect, 10 complete control
[25] = Rate 500 g/ha, Postemergence section of Table B, 0 to 10 scale (0 no effect, 10 complete control)
[26] = flood test, listed under Postemergence, Rate 250 g/ha, scale 0 to 10, 0 no effect, 10 complete control
[27] = Preemergence, Rate 62 g/ha, scale 0 to 10, 0 is no effect, 10 is complete control
[28] = Rate 31 g/ha, Postemergence, scale 0 to 10

Cc1cccc(C)c1-n1c(=O)on(C(=O)N(c2ccc(F)cc2F)C(C)C)c1=O [Compound 28]
Wild oats plant response rating [1, 18]: 0
Wild oats plant response rating [1, 19]: 0
Wild oats plant response rating [1, 20]: 0
Plant response rating, Wild oats [1, 21]: 0
Plant response rating, Wild oats [1, 22]: 3
Wild oats plant response rating [1, 23]: 0
Barnyardgrass plant response rating [2, 18]: 5
Barnyardgrass plant response rating [2, 24]: 8
Barnyardgrass plant response rating [2, 25]: 10
Barnyardgrass plant response rating [2, 26]: 9
Velvetleaf plant response rating [3, 18]: 0
Velvetleaf plant response rating [3, 19]: 0
Velvetleaf plant response rating [3, 20]: 0
Plant response rating, Velvetleaf [3, 27]: 0
Plant response rating, Velvetleaf [3, 21]: 0
Plant response rating, Velvetleaf [3, 22]: 0
Velvetleaf plant response rating [3, 23]: 0
Ducksalad plant response rating [4, 18]: 0
Ducksalad plant response rating [4, 24]: 0
Ducksalad plant response rating [4, 25]: 4
Ducksalad plant response rating [4, 26]: 0
Corn plant response rating [5, 18]: 0
Corn plant response rating [5, 19]: 0
Corn plant response rating [5, 20]: 0
Plant response rating, Corn [5, 27]: 0
Plant response rating, Corn [5, 21]: 0
Plant response rating, Corn [5, 22]: 0
Corn plant response rating [5, 28]: 0
Corn plant response rating [5, 23]: 0
Bedstraw plant response rating [6, 18]: 3
Bedstraw plant response rating [6, 19]: 8
Bedstraw plant response rating [6, 20]: 0
Plant response rating, Bedstraw [6, 27]: 0
Plant response rating, Bedstraw [6, 21]: 0
Plant response rating, Bedstraw [6, 22]: 1
Bedstraw plant response rating [6, 28]: 3
Blackgrass plant response rating [7, 18]: 0
Blackgrass plant response rating [7, 19]: 6
Blackgrass plant response rating [7, 20]: 0
Plant response rating, Blackgrass [7, 27]: 0
Plant response rating, Blackgrass [7, 21]: 0
Plant response rating, Blackgrass [7, 22]: 3
Blackgrass plant response rating [7, 28]: 0
Blackgrass plant response rating [7, 23]: 2
Wheat plant response rating [8, 18]: 0
Wheat plant response rating [8, 19]: 0
Wheat plant response rating [8, 20]: 0
Plant response rating, Wheat [8, 27]: 0
Plant response rating, Wheat [8, 21]: 0
Plant response rating, Wheat [8, 22]: 0
Wheat plant response rating [8, 23]: 0
Cocklebur plant response rating [9, 18]: 0
Cocklebur plant response rating [9, 19]: 3
Cocklebur plant response rating [9, 20]: 0
Plant response rating, Cocklebur [9, 21]: 0
Plant response rating, Cocklebur [9, 22]: 0
Cocklebur plant response rating [9, 28]: 0
Cocklebur plant response rating [9, 23]: 0
Nutsedge plant response rating [10, 18]: 0
Nutsedge plant response rating [10, 19]: 0
Nutsedge plant response rating [10, 20]: 0
Plant response rating, Nutsedge [10, 27]: 0
Plant response rating, Nutsedge [10, 21]: 0
Plant response rating, Nutsedge [10, 22]: 0
Nutsedge plant response rating [10, 28]: 0
Nutsedge plant response rating [10, 23]: 0
Rice plant response rating [11, 18]: 0
Rice plant response rating [11, 24]: 0
Rice plant response rating [11, 25]: 3
Rice plant response rating [11, 26]: 2
Sugarbeets plant response rating [12, 18]: 1
Sugarbeets plant response rating [12, 19]: 1
Sugarbeets plant response rating [12, 20]: 0
Plant response rating, Sugarbeets [12, 27]: 0
Plant response rating, Sugarbeets [12, 21]: 0
Plant response rating, Sugarbeets [12, 22]: 0
Sugarbeets plant response rating [12, 23]: 1
S. Flatsedge plant response rating [13, 18]: 0
S. Flatsedge plant response rating [13, 24]: 0
S. Flatsedge plant response rating [13, 26]: 0
Rape plant response rating [14, 18]: 0
Rape plant response rating [14, 19]: 0
Rape plant response rating [14, 20]: 0
Plant response rating, Rape [14, 27]: 0
Plant response rating, Rape [14, 21]: 0
Plant response rating, Rape [14, 22]: 0
Rape plant response rating [14, 28]: 0
Rape plant response rating [14, 23]: 0
Crabgrass plant response rating [15, 18]: 3
Crabgrass plant response rating [15, 19]: 9
Crabgrass plant response rating [15, 20]: 2
Plant response rating, Crabgrass [15, 27]: 3
Plant response rating, Crabgrass [15, 21]: 7
Plant response rating, Crabgrass [15, 22]: 9
Crabgrass plant response rating [15, 28]: 1
Crabgrass plant response rating [15, 23]: 6
Soybean plant response rating [16, 18]: 3
Soybean plant response rating [16, 19]: 3
Soybean plant response rating [16, 20]: 0
Plant response rating, Soybean [16, 27]: 0
Plant response rating, Soybean [16, 21]: 0
Plant response rating, Soybean [16, 22]: 0
Soybean plant response rating [16, 23]: 3
B. signalgrass plant response rating [17, 18]: 0
B. signalgrass plant response rating [17, 19]: 0
B. signalgrass plant response rating [17, 20]: 0
Plant response rating, B. signalgrass [17, 27]: 0
Plant response rating, B. signalgrass [17, 21]: 0
Plant response rating, B. signalgrass [17, 22]: 0
B. signalgrass plant response rating [17, 28]: 0
B. signalgrass plant response rating [17, 23]: 0
